Source: patent US20260265259A1, “SUBSTITUTED 6-IMIDAZOPYRIDAZINE IL-17A MODULATORS AND USES THEREOF” (DICE ALPHA, INC., priority 2023, published 2026)

These compounds were tested on IL-17A/A (assay: IL-17A/A HEK-Blue cell assay). Conditions: HEK-Blue, 20 h, IL-17A/A inhibition, HEK-Blue IL-17A reporter cell line, IL17A/A 5 ng/mL, SEAP read at A630, read-out: AA IC50.
Format: cell-based
Protocol: The HEK-Blue IL-17A reporter cell line (Fisher #NC1408637) was used for cell-based IL-17A/A inhibition assays. Cells were grown and prepared for assays according to the manufacturer's instructions. This cell line consists of HEK 293 cells that were designed to expressed IL-17RA, IL-17RC, and the Act1 adapter molecule, the combination of which, when stimulated by IL-17A/A or IL17A/F activates a NFκB promoter and drives expression of the recombinant Secreted Alkaline Phosphatase (SEAP) gene. Media from the cells is then added to a development reagent (Quanti-Blue Substrate, Fisher #NC9711613), and read at A630.
Compounds were dispensed in DMSO to an empty clear 384-well tissue culture plate in a titration ranging from 10 μM to 27 pM, with DMSO added to every well to a final concentration of 0.1%. Cells were then added to the plate (45 μL/well at a concentration of 280,000 cells/mL). IL17A/A (Genscript #Z03228) or IL17A/F (R&D Systems) was added to the plate to a final concentration of 5 ng/mL and a final well volume of 50 μL. The cells, compound, and IL-17A/A or IL17A/F were then incubated for 20 hours before media was removed for SEAP analysis. The resulting inhibition curve was then analyzed using Dotmatics' integrated 4-parameter fit screening protocol to generate IC50 values.

SMILES	IC50
CCn1nccc1C(=O)N[C@H](c1cn2nc(C[C@H]3C[C@@H](C(F)(F)F)CNC3=O)c(N3CCOCC3C)cc2n1)C1CCC(F)(F)CC1 (stereo partly drawn) [Compound 32]	100 to 1000 nM
CCn1nccc1C(=O)N[C@H](c1cn2nc(C[C@H]3C[C@@H](C(F)(F)F)CNC3=O)c(CN3CCOCC3)cc2n1)C1CCC(F)(F)CC1 [Compound 108, N—((S)-(4,4-difluorocyclohexyl)(7-(morpholinomethyl)-6-(((3R,5R)-2-oxo-5-(trifluoromethyl)piperidin-3-yl)methyl)imidazo[1,2-b]pyridazin-2-yl)methyl)-1-ethyl-1H-pyrazole-5-carboxamide]	< 100 nM
CCn1nccc1C(=O)N[C@H](c1cn2nc(C[C@H]3C[C@@H](C(F)(F)F)CNC3=O)c(C3CCS(=O)(=O)CC3)cc2n1)C1CCC(F)(F)CC1 [Compound 118, N—((S)-(4,4-difluorocyclohexyl)(7-(1,1-dioxidotetrahydro-2H-thiopyran-4-yl)-6-(((3R,5R)-2-oxo-5-(trifluoromethyl)piperidin-3-yl)methyl)imidazo[1,2-b]pyridazin-2-yl)methyl)-1-ethyl-1H-pyrazole-5-carboxamide]	< 100 nM
CCn1nccc1C(=O)N[C@H](c1cn2nc(C[C@H]3C[C@@H](C(F)(F)F)CNC3=O)c(C3CCOCC3)cc2n1)[C@@H]1CCCC(F)(F)C1 [Compound 56]	< 100 nM
CCn1nccc1C(=O)N[C@H](c1cn2nc(C[C@H]3C[C@@H](C(F)(F)F)CNC3=O)c(N3CCOCC3)cc2n1)C1CCC(F)(F)CC1 [Compound 37]	< 100 nM
CCn1nccc1C(=O)N[C@H](c1cn2nc(C[C@H]3C[C@@H](C(F)(F)F)CNC3=O)c(N3CC4CC3CO4)cc2n1)C1CCC(F)(F)CC1 (stereo partly drawn) [Compound 51]	< 100 nM
CCn1nccc1C(=O)N[C@H](c1cn2nc(C[C@@H]3C[C@@H](C(F)(F)F)CNC3=O)c(-c3cncnc3)cc2n1)C1CCC(F)(F)CC1 [Compound 9]	> 1000 nM
CCn1nccc1C(=O)N[C@H](c1cn2nc(C[C@H]3C[C@@H](C(F)(F)F)CNC3=O)c(N3CC(O)C3)cc2n1)C1CCC(F)(F)CC1 [Compound 98]	100 to 1000 nM
CCn1ncnc1C(=O)N[C@H](c1cn2nc(C[C@H]3C[C@@H](C(F)(F)F)CNC3=O)c(C3CCOCC3)cc2n1)C1CCC(F)(F)CC1 [Compound 89]	100 to 1000 nM
CCn1nccc1C(=O)N[C@H](c1cn2nc(C[C@H]3C[C@@H](C(F)(F)F)CNC3=O)c(N3CC4(CCCOC4)C3)cc2n1)C1CCC(F)(F)CC1 [Compound 47]	< 100 nM
O=C(N[C@H](c1cn2nc(C[C@H]3C[C@@H](C(F)(F)F)CNC3=O)c(N3CC(F)(F)C3)cc2n1)C1CCC(F)(F)CC1)c1nonc1C1CC1 [Compound 40]	100 to 1000 nM
CCn1nccc1C(=O)N[C@H](c1cn2nc(C[C@H]3C[C@@H](C(F)(F)F)CNC3=O)c(C3CCCC3)cc2n1)C1CCC(F)(F)CC1 [Compound 46]	< 100 nM
CCn1nccc1C(=O)N[C@H](c1cn2nc(C[C@H]3C[C@@H](C(F)(F)F)CNC3=O)c(N3CC4(CCOCC4)C3)cc2n1)C1CCC(F)(F)CC1 [Compound 48]	< 100 nM
CCn1nccc1C(=O)N[C@H](c1cn2nc(C[C@H]3C[C@@H](C(F)(F)F)CNC3=O)c(N3CCN(CCOC)CC3)cc2n1)C1CCC(F)(F)CC1 [Compound 99, N—((S)-(4,4-difluorocyclohexyl)(7-(4-(2-methoxyethyl)piperazin-1-yl)-6-(((3R,5R)-2-oxo-5-(trifluoromethyl)piperidin-3-yl)methyl)imidazo[1,2-b]pyridazin-2-yl)methyl)-1-ethyl-1H-pyrazole-5-carboxamide]	< 100 nM
CCn1nccc1C(=O)N[C@H](c1cn2nc(C[C@H]3C[C@@H](C(F)(F)F)CNC3=O)c(-c3cccnc3)cc2n1)C1CCC(F)(F)CC1 [Compound 3]	100 to 1000 nM
CCn1nccc1C(=O)N[C@H](c1cn2nc(C[C@H]3C[C@@H](C(F)(F)F)CNC3=O)c(N3CCO[C@H](C)C3)cc2n1)C1CCC(F)(F)CC1 [Compound 33, N—((S)-(4,4-difluorocyclohexyl)(7-((R)-2-methylmorpholino)-6-(((3R,5R)-2-oxo-5-(trifluoromethyl)piperidin-3-yl)methyl)imidazo[1,2-b]pyridazin-2-yl)methyl)-1-ethyl-1H-pyrazole-5-carboxamide]	< 100 nM
CCn1nccc1C(=O)N[C@H](c1cn2nc(C[C@H]3C[C@@H](C(F)(F)F)CNC3=O)c(N3CCOCC3)cc2n1)[C@H]1CCCC(F)(F)C1 [Compound 25]	< 100 nM
CCn1nccc1C(=O)N[C@H](c1cn2nc(C[C@H]3C[C@@H](C(F)(F)F)CNC3=O)c(CN(C)CC(F)(F)F)cc2n1)C1CCC(F)(F)CC1 [Compound 116, N—((S)-(4,4-difluorocyclohexyl)(7-((methyl(2,2,2-trifluoroethyl)amino)methyl)-6-(((3R,5R)-2-oxo-5-(trifluoromethyl)piperidin-3-yl)methyl)imidazo[1,2-b]pyridazin-2-yl)methyl)-1-ethyl-1H-pyrazole-5-carboxamide]	< 100 nM
CCn1nccc1C(=O)N[C@H](c1cn2nc(C[C@H]3C[C@@H](C(F)(F)F)CNC3=O)c(CN3CCCC3)cc2n1)C1CCC(F)(F)CC1 [Compound 106, N—((S)-(4,4-difluorocyclohexyl)(6-(((3R,5R)-2-oxo-5-(trifluoromethyl)piperidin-3-yl)methyl)-7-(pyrrolidin-1-ylmethyl)imidazo[1,2-b]pyridazin-2-yl)methyl)-1-ethyl-1H-pyrazole-5-carboxamide]	< 100 nM
O=C(N[C@H](c1cn2nc(C[C@H]3C[C@@H](C(F)(F)F)CNC3=O)c(C3CCOCC3)cc2n1)C1CCC(F)(F)CC1)c1ccnn1C1CC1(F)F (stereo partly drawn) [Compound 92]	100 to 1000 nM
CCn1nccc1C(=O)N[C@H](c1cn2nc(C[C@H]3C[C@@H](C(F)(F)F)CNC3=O)c(C3CCCCC3)cc2n1)C1CCC(F)(F)CC1 [Compound 76]	< 100 nM
CCn1nccc1C(=O)N[C@H](c1cn2nc(C[C@H]3C[C@@H](C(F)(F)F)CNC3=O)c(CN(C)C)cc2n1)C1CCC(F)(F)CC1 [Compound 111, N—((S)-(4,4-difluorocyclohexyl)(7-((dimethylamino)methyl)-6-(((3R,5R)-2-oxo-5-(trifluoromethyl)piperidin-3-yl)methyl)imidazo[1,2-b]pyridazin-2-yl)methyl)-1-ethyl-1H-pyrazole-5-carboxamide]	< 100 nM
CCn1nccc1C(=O)N[C@H](c1cn2nc(C[C@H]3C[C@@H](C(F)(F)F)CNC3=O)c(N3CCC3)cc2n1)C1CCC(F)(F)CC1 [Compound 23]	< 100 nM
CCn1nccc1C(=O)N[C@H](c1cn2nc(C[C@H]3C[C@@H](C(F)(F)F)CNC3=O)c(CN(C)C3CC3)cc2n1)C1CCC(F)(F)CC1 [Compound 113, N—((S)-(7-((cyclopropyl(methyl)amino)methyl)-6-(((3R,5R)-2-oxo-5-(trifluoromethyl)piperidin-3-yl)methyl)imidazo[1,2-b]pyridazin-2-yl)(4,4-difluorocyclohexyl)methyl)-1-ethyl-1H-pyrazole-5-carboxamide]	< 100 nM
CCn1nccc1C(=O)N[C@H](c1cn2nc(C[C@H]3C[C@@H](C(F)(F)F)CNC3=O)c(N3CCN(C)CC3)cc2n1)C1CCC(F)(F)CC1 [Compound 20]	< 100 nM
O=C(N[C@H](c1cn2nc(C[C@H]3C[C@@H](C(F)(F)F)CNC3=O)c(C3CCOCC3)cc2n1)[C@H]1CCCC(F)(F)C1)c1nonc1C1CC1 [Compound 57]	< 100 nM
CCn1nccc1C(=O)N[C@H](c1cn2nc(C[C@H]3C[C@@H](C(F)(F)F)CNC3=O)c(C3CCOC3)cc2n1)C1CCC(F)(F)CC1 (stereo partly drawn) [Compound 6]	< 100 nM
CCn1nccc1C(=O)N[C@H](c1cn2nc(C[C@H]3C[C@@H](C(F)(F)F)CNC3=O)c(C3CCOC3)cc2n1)[C@H]1CCCC(F)(F)C1 (stereo partly drawn) [Compound 67]	< 100 nM
CCn1nccc1C(=O)N[C@H](c1cn2nc(C[C@H]3C[C@@H](C(F)(F)F)CNC3=O)c(N3CCN(C4CC4)CC3)cc2n1)C1CCC(F)(F)CC1 [Compound 80]	< 100 nM
O=C(N[C@H](c1cn2nc(C[C@H]3C[C@@H](C(F)(F)F)CNC3=O)c(N3CC4(COC4)C3)cc2n1)C1CCC(F)(F)CC1)c1nonc1C1CC1 [Compound 42]	100 to 1000 nM

Same assay, conditions: IL-17A/A inhibition, HEK-Blue IL-17A reporter cell line, IL17A/A 5 ng/mL, 20 hours, SEAP read at A630; read-out: AA IC50

SMILES	IC50
CCn1nccc1C(=O)N[C@H](c1cn2nc(C[C@H]3C[C@@H](C(F)(F)F)CNC3=O)c(C3CCCOC3)cc2n1)[C@@H]1CCCC(F)(F)C1 (stereo partly drawn) [Compound 66]	< 100 nM
CCn1nccc1C(=O)N[C@H](c1cn2nc(C[C@@H]3C[C@@H](C(F)(F)F)CNC3=O)c(N3CCOCC3C)cc2n1)C1CCC(F)(F)CC1 (stereo partly drawn) [Compound 97]	< 100 nM
O=C(N[C@H](c1cn2nc(C[C@H]3C[C@@H](C(F)(F)F)CNC3=O)c(C3CCOC3)cc2n1)[C@H]1CCCC(F)(F)C1)c1nonc1C1CC1 (stereo partly drawn) [Compound 73]	< 100 nM
CCn1nccc1C(=O)N[C@H](c1cn2nc(C[C@H]3C[C@@H](C(F)(F)F)CNC3=O)c(C3CCOC3)cc2n1)[C@@H]1CCCC(F)(F)C1 (stereo partly drawn) [Compound 72]	< 100 nM
CCn1nccc1C(=O)N[C@H](c1cn2nc(C[C@@H]3C[C@@H](C(F)(F)F)CNC3=O)c(N3CCOCC3C)cc2n1)C1CCC(F)(F)CC1 (stereo partly drawn) [Compound 96]	> 1000 nM
CCn1nccc1C(=O)N[C@H](c1cn2nc(C[C@H]3C[C@@H](C(F)(F)F)CNC3=O)c(N3CCC(OC)C3)cc2n1)C1CCC(F)(F)CC1 (stereo partly drawn) [Compound 78]	< 100 nM
